From US8324166B2, “Neuroprotection using NAP-like and SAL-like peptide mimetics” (Ramot at Tel-Aviv University, Ltd., priority 2007, dated 2012)
Values joined by “and” are separate entries in the source; they are usually repeats but may differ in a detail not shown here. Identical values can stand only once. “Also recorded” adds a separate entry of the source.

How the values were obtained:
[1] = system: rTg(tauP301L)4510 mouse (Tau-Tg); experiment: Brain-Body weight ratio in Tau transgenic mice; assay type: in vivo
Procedure: (§1) The experiment included three groups: Tau-Tg female mice, 10-month-old, treated by intranasal administration of NAT 2 μg/5 μl/mouse/day (n=5) or vehicle (SW/mouse/day) (n=6), and as control, non-Tg female littermates treated by vehicle (SW/mouse/day) (n=7).
Treatment started at 9 months of age and continued daily for a period of 5 weeks. At each test NAT was applied 1 h before the test begun.
All mice were weighed at the beginning and end of the experiment and whole brain weight was measured before the brain dissection.
All mice were weighed before first drug application and again before the dissection (while still alive). […] Whole brain was weighed before the brain sections were separated and no significant statistical differences between the groups were found. However, Brain-Body weight ratio may be used to measure brain mass decrease possibly indicating neuronal degradation (Bassan et al., (2009) J Matern Fetal Neonatal Med, 1-6).

[2] = system: neurons in mixed neuroglial cultures intoxicated with beta-amyloid 1-42; experiment: MAP2 assay: neuronal survival in mixed neuroglial cultures following beta-amyloid intoxication; assay type: cell-based, rat
Procedure: Newborn rats were used to prepare cerebral cortical astrocytes cell cultures as described above. After suspending the cells in D1, they were centrifuged at 100 g for 5 minutes and the supernatant discarded. The cell pellet was resuspended in solution D2 containing 5% heat inactivated horse serum (Biological Industries, Beit Haemek, Israel), 0.1% gentamycin, 0.1% penicillin-streptomycin-nystatin, 1% N3 (defined medium components essential for neuronal development in culture, (Romijn HJ, Brain Res., 254:583-9 (1981)]), 15 μg/ml 5′-fluoro-2-deoxyuridine (FUDR, Sigma, Rehovot, Israel), and 3 μg/ml uridine (Sigma, Rehovot, Israel) in DMEM. Cells were counted in a hemocytometer, diluted in D2 and 17,000 cells/well/96 well plate were seeded on 8-day-old astrocytes prepared as described above. The medium was changed the next day to D2 without FUDR and uridine. Cells were allowed to grow for one week at 37° C. 10% CO2 before experiments were performed.
Neuronal survival in neuroglial cultures following beta-amyloid intoxication was assayed using the neuron specific antibody, MAP2. […] The cells were incubated for 5 days in 10% CO2 at 37°C.
5 days after the addition of beta-amyloid and the peptide, the cells were fixed by removing the media from each well and the addition of cold methanol. The cells were left in the refrigerator overnight. The cells were immunostained with anti-MAP2 as previously described (Brooke S M et al., Neurosci. Lett., 267:21-4(1999)): the methanol was removed and the cells were washed 4 times with phosphate buffered saline (PBS). Blocking for non-specific antibody binding was performed by incubating the cells in 5% non-fat milk in PBS overnight at 4° C. The blocking solution was then removed and anti-MAP2(1:1000; Sigma, Rehovot, Israel) was added to each well. The cells were incubated for 30 minutes at room temperature, followed by 4 washes with PBS. Biotinylated anti-mouse IgG (1:200, Vector Laboratories, Burlingame, Calif., USA) was then added to each well, and the cells were incubated for 30 minutes at room temperature followed by 4 washes with PBS. The cells were incubated at room temperature for 30 minutes with the ABC reagent (Vector Laboratories, Burlingame, Calif., USA) prepared according to the manufacturer's protocol and then washed 4 times with PBS. ABTS reagent, prepared according to the manufacturer's protocol (Vector Laboratories, Burlingame, Calif., USA) was then added to each well and the cells were incubated for 20 minutes in the dark at room temperature. The plates were read in an ELISA plate reader at 405nm. As blanks, wells containing untreated cells and no primary antibody were used.

ADNP = experiment: Nuclear ADNP level in cerebral cortex by immunoblotting; assay type: in vivo, mouse; conditions: NAT vs vehicle treated TAU-Tg, p=0.0028, listed as NAT
Procedure: as §1
Mouse brain tissue was rapidly dissected and quickly separated into four different brain sections: cortex, hippocampus, cerebellum and rest of the brain. Brains were kept frozen at −80° C. for further biochemical analysis. Total levels of nuclear ADNP were analyzed by immunoblotting. Cerebral cortex samples (˜50 mg each) were homogenized and cytoplasmic and nucleus proteins were separated using lysis buffer (20 mM TRIS HCl pH […], 0.1 mM EDTA, 1.5 mM MgCl2, 0.2% NP-40) and extraction buffer (10 mM TRIS HCl pH 7.7, 0.1 mM EDTA, 1.5 mM MgCl2, 20% Glycerol, 1.61 gr NaCl). Protein amount was estimated and corrected by using the Bradford assay and then separated by electrophoresis on 12% polyacrylamide gels containing SDS (Shiryaev et al., (2009) Neurobiol Dis, 34, 381-388). Western blot analyses were performed by applying brain protein samples onto two gels. Each gel had sample representation from each one of the three groups. […] Protein bands on hyperfilm were quantified using photochromatography analysis. The ADNP amount in each band was calculated as its percentage from the total amount of all bands. […]

## NATLSIHQ (synthetic NAP-like peptide)
[1]; TAU-Tg mice, intranasal NAT, listed as NAT
  protection from neurodegeneration (Brain-Body weight ratio): protected the brain from neurodegeneration; also recorded: protective effect
[1]; TAU-Tg+NAT, intranasal daily 5 weeks, mean and S.E., p=0.030 vs vehicle treated TAU-Tg
  Brain-Body weight ratio: 0.0148+0.0009
[2]; MAP2 assay, 5 days, tested 10^−19M to 10^−5M, significance vs negative control in cell
  effective concentrations on neuronal survival: Neurons (25 μM beta-amyloid): 10^−19 M and 10^−15 M and 10^−17 M and 10^−13 M
[2]; neuroglial cells, beta-amyloid
  activity in neuroprotection assay: active
[2]; survival of neuroglial cells
  efficacy compared between peptides: greater than that of STPTAIPQ
ADNP
  amount of nuclear ADNP protein: difference between the NAT and vehicle treated TAU-Tg groups; also recorded: statistically significant increase
